Measured values published in paper PMC10638401, “Mannich-type modifications of (−)-cannabidiol and (−)-cannabigerol leading to new, bioactive derivatives” (Scientific Reports, 2023).
≈ marks a conversion by molar mass, not a printed value.

How the values were obtained:
[1] = test system: Staphylococcus epidermidis mecA; assay: MIC, broth micro dilution; settings: Staphylococcus epidermidis
Method: (§3) According to CLSI guideline the Minimal Inhibitory Concentrations (MICs) of the prepared compounds were determined with the broth micro dilution method. After an overnight growth on 5% bovine blood agar plates at 35 °C bacterial strains were suspended in physiological saline in order to reach the density of 0.5 McFarland for inoculation. Stock solutions containing different concentrations of the substances were prepared in DMSO and H2O (1:1). These were twofold serially diluted from 256 to 0.5 mg/l in Mueller–Hinton broth, and 100 ml of each dilution was inoculated with 10 ml of each bacterial suspension.

[2] = test system: Staphylococcus epidermidis biofilm forming; assay: MIC, broth micro dilution; settings: Staphylococcus epidermidis
[3] = test system: Enterococcus faecalis 15 376 VanA; assay: MIC, broth micro dilution; settings: Enterococcus faecalis, 15376VANA
Method: as §3

[4] = test system: Enterococcus faecalis 51299 VanB; assay: MIC, broth micro dilution; settings: Enterococcus faecalis, 51299VANB
Method: as §3

[5] = test system: MRSA (Methicillin Resistant Staphylococcus aureus); assay: MIC, broth micro dilution; settings: Staphylococcus aureus
[6] = test system: SARS-CoV-2; assay: SARS-CoV-2 cytopathic effect (CPE) inhibition assay in Vero E6 cells (XTT); type: cell-based; settings: Severe acute respiratory syndrome coronavirus 2, Vero C1008, 72 h; Vero E6 cells, 3 days post-infection, XTT
Method: CBD and CBG derivatives were further tested for their ability to inhibit SARS-CoV-2 replication in Vero E6 cells. Initially, the inhibition of virus-induced cytopathic effect was measured by addition of twofold serial dilutions of each derivative to the cells, followed by the infection with SARS-CoV-2 and determination of the cell viability 3 days post-infection by XTT assay. Concurrently, the cytotoxicity of each compound was assessed from identical dilutions in uninfected Vero E6 cells. To confirm anti-SARS-CoV-2 activity in the CPE inhibition assay, selected compounds were tested in immunofluorescence assay, where inhibition of SARS-CoV-2 replication was monitored as reduction in nucleoprotein expression using fluorescence microscope. […] Among the CBG derivatives, we can find quite cytotoxic and non-cytotoxic derivatives as well.
For CPE-based assay, two-fold fold serial dilutions of compounds from 100 µM were added in triplicate in a 384-well plate with 5000 Vero E6 cells in DMEM medium with 2% FBS, 100 U of penicillin/ml and 100 µg of streptomycin/ml (all Merck). After 1 h incubation SARS-CoV-2 (strain hCoV-19/Czech Republic/NRL_6632_2/2020) was added at multiplicity of infection […]. Following three days incubation at 37 °C in 5% CO2 the cell viability was determined by addition of XTT solution (Sigma-Aldrich) for 4 h and the absorbance was measured using EnVision plate reader (Perkin Elmer). Drug concentrations required to reduce viral cytopathic effect by 50% (EC50) were calculated using nonlinear regression from plots of percentage cell viability versus log10 drug concentration using GraphPad Prism (version 9.0.0, GraphPad Software, LLC). For immunofluorescence assay, two-fold fold serial dilutions of compounds from 100 µM were added in triplicate in 96-well plate with 15,000 Vero E6 cells plated day before in the same medium as above. After 1 h incubation, SARS-CoV-2 was added at multiplicity of infection 0.05 IU/cell. After three days of incubation, cells were fixed with 4% paraformaldehyde, permeabilized with 0.2% Triton X100 (both Merck), washed, incubated with anti-SARS-CoV-2antibody (mouse monoclonal antibody detecting SARS-CoV-2 nucleoprotein) for 2 h at room temperature. Followed by 1.5 h incubation with Cy3-labeled donkey anti-mouse IgG (Jackson ImmunoResearch Europe) and documented using fluorescence microscope with camera (Olympus). Images were processed in ImageJ software (NIH) and compound concentrations required to reduce fluorescence by 50% (EC50s) were calculated from plots of percentage of fluorescent cells versus log10 drug concentration using nonlinear regression analysis as above. Cytotoxicity was evaluated by incubating with the same two-fold serial dilutions of each compound as above with Vero E6 cells in 384-well plate.

[7] = test system: Enterococcus faecalis 29 212; assay: MIC, broth micro dilution; settings: Enterococcus faecalis, 29212
[8] = test system: multidrug-resistant Acinetobacter baumannii; assay: Antibacterial effect, broth micro dilution
Method: as §3

[9] = test system: Bacillus subtilis; assay: MIC, broth micro dilution
[10] = test system: SZ95 sebocytes; assay: Viability MTT-assay on sebocytes, 48 h; type: cell-based, human; settings: 30 μM
Method: Human immortalized SZ95 sebocytes, originated from human facial sebaceous glands[50] were provided by prof. Christos C. Zouboulis, and were cultured in Sebomed® Basal Medium (Cat. No. F8205; Sigma-Aldrich) supplemented with 10% FBS (Gibco-Thermo Fisher Scientific), 1 mM CaCl2 (Cat. No. C7902; Sigma-Aldrich), 5 ng/ml human epidermal growth factor (Cat. No. E9644; Sigma-Aldrich), and MycoZap™ Plus-CL (1:500; Lonza). The medium was changed every other day, and cells were subcultured at 60–70% confluence.
The viability of HaCaT keratinocytes and SZ95 sebocytes was determined by MTT-assay[58] (Cat. No. M5655; Sigma-Aldrich) measuring the conversion of the tetrazolium salt to formazan by mitochondrial dehydrogenases. Cells were plated in 96-well plates (20,000 cells/well), and were treated as indicated. Cells were then incubated with 0.5 mg/ml MTT reagent for 3 h, and concentration of formazan crystals (as an indicator of number of viable cells) was determined colorimetrically at 565 nm by using FlexStation 3 multi-mode microplate reader (Molecular Devices). Results were expressed as percentage of vehicle-treated control regarded as 100%.

[11] = test system: Pseudomonas aeruginosa; assay: Antibacterial effect, broth micro dilution; type: cell-based
[12] = test system: MSSA (Methicillin Sensitive Staphylococcus aureus); assay: MIC, broth micro dilution; settings: Staphylococcus aureus
Method: as §3

[13] = in vitro; settings: African green monkey
[14] = test system: Escherichia coli; assay: Antibacterial effect, broth micro dilution; type: cell-based
[15] = test system: Klebsiella pneumoniae carbapenemase-producing bacteria; assay: Antibacterial effect, broth micro dilution
[16] = test system: MCF7 cells; assay: Antiproliferative MTT assay, 72 h; type: cell-based, human; settings: Homo sapiens, MCF7, 30 μM, read-out: inhibition of the proliferation
Source text: (§1) Human adherent cancer cell lines A2780, MDA-MB-231 and MCF-7 were obtained from ECACC (European Collection of Cell Cultures, Salisbury, UK; Cat. No.93112519, 92020424, 86012803, respectively). SiHa cell line was obtained from ATCC (American Tissue Culture Collection, Manassas, Virginia, USA; Cat. No. HTB-35). All cell lines used for antiproliferative assay were maintained in Eagle's Minimum Essential Medium (EMEM) completed with 10% fetal bovine serum (FBS), 1% non-essential amino acid solution, and 1% penicillin, streptomycin, and amphotericin B mixture under cell culture conditions described before. All the utilized media and supplements were purchased from Lonza Group Ltd. (Basel, Switzerland).
(§2) The antiproliferative actions of the prepared molecules were determined by the same assay against a panel of adherent human cancer cell lines containing cervical (SiHa), ovarian (A2780) and breast (MCF7, MDA-MB-231) cell lines. Cells were plated onto 96-well microplates (5000 cells/well) and after an overnight incubation treated with two concentrations (10 or 30 μM) of the test substances for 72 h under cell culture conditions. Subsequently, MTT (5 mg/ml in phosphate buffer) was added to the wells, followed by incubation for 4 h. The supernatant was removed, the formazan crystals were then dissolved in 100 µl DMSO. Finally, absorbance values were determined by a microplate reader (BMG Labtech, Ortenberg, Germany) at 545 nm. Two independent measurements were performed with five parallel wells. Results were expressed as percentage of cell proliferation inhibition compared to non-treated control samples regarded as 0%.

[17] = test system: A2780 cells; assay: Antiproliferative MTT assay, 72 h; type: cell-based, human; settings: Homo sapiens, A2780, 30 μM, read-out: inhibition of the proliferation
Source text: as §1, §2

Q: Which results are given for CCCCCc1cc(O)c(C/C=C(\C)CCC=C(C)C)c(O)c1 [Compound 2, (−)-cannabigerol]?
A: MIC [1]: 8 µg/mL (≈ 25.3 µM); MIC [2]: 8 µg/mL (≈ 25.3 µM); MIC [3]: 4 µg/mL (≈ 12.6 µM); MIC [4]: 4 µg/mL (≈ 12.6 µM); MIC [5]: 4 µg/mL (≈ 12.6 µM); EC50 [6]: > 11 µM; MIC [7]: 4 µg/mL (≈ 12.6 µM); antibacterial effect (no effect up to) [8]: > 256 µg/mL; MIC [9]: 2 µg/mL (≈ 6.32 µM); viability (MTT signal intensity) [10]: tended to suppress viability; antibacterial effect (no effect up to) [11]: > 256 µg/mL; MIC [12]: 4 µg/mL (≈ 12.6 µM); CC50 [13]: ~11 µM; antibacterial effect (no effect up to) [14]: > 256 µg/mL; antibacterial effect (no effect up to) [15]: > 256 µg/mL; inhibition at 30 µM [16]: > 90%; inhibition at 30 µM [17]: > 90%
